Results published in ChEMBL document CHEMBL5096178, “Synthesis and Biological Evaluation of Natural-Product-Inspired, Aminoalkyl-Substituted 1-Benzopyrans as Novel Antiplasmodial Agents” (J Med Chem, 2021).

Assays:
Plasmodium falciparum [1] = assay: Potency index, ratio of Chloroquine IC50 to test compound IC50 for Chloroquine-resistant Plasmodium falciparum K1 assessed as parasite growth inhibition; format: functional
Plasmodium falciparum [2] = assay: Antiprotozoal activity against Chloroquine-resistant Plasmodium falciparum K1 assessed as parasite growth inhibition; format: functional, organism-based
[3] = Displacement of [3H]-(+)-pentazocine from Sigma1 receptor derived from pig brain assessed as inhibition constant measured after 120 mins by scintillation counter analysis; format: tissue-based, Sus scrofa
Leishmania donovani [4] = assay: Antiprotozoal activity against Leishmania donovani MHOM/ET/67/L82 axenic amastigote assessed as parasite growth inhibition incubated for resazurin dye based fluorometry; format: functional, organism-based
[5] = Selectivity index, ratio of IC50 for rat L6 cells to IC50 for Trypanosoma brucei rhodesiense STIB 900 bloodstream trypomastigote; format: toxicity; conditions: read-out: Ratio IC50
Trypanosoma cruzi = assay: Antiprotozoal activity against Trypanosoma cruzi Tulahuen C4 intracellular amastigote infected in rat L6 cells assessed as parasite growth inhibition incubated for 96 hrs in presence of CPRG/Nonidet by photometry; format: functional, organism-based; conditions: Tulahuen C4, L6, 96 h
[6] = Selectivity index, ratio of IC50 for rat L6 cells to IC50 for Trypanosoma cruzi Tulahuen C4 intracellular amastigote infected in rat L6 cells; format: toxicity, cell-based; conditions: read-out: Ratio IC50
[7] = Cytotoxicity against rat L6 cells assessed as cell growth inhibition incubated for 70 hrs by Alamar Blue staining based […]; format: toxicity
[8] = Selectivity index, ratio of IC50 for rat L6 cells to IC50 for erythrocytic stage Plasmodium falciparum NF54; format: toxicity; conditions: read-out: Ratio IC50
[9] = Selectivity index, ratio of IC50 for rat L6 cells to IC50 for Leishmania donovani MHOM/ET/67/L82 axenic amastigote; format: toxicity; conditions: read-out: Ratio IC50
[10] = system: Trypanosoma brucei rhodesiense; assay: Antiprotozoal activity against Trypanosoma brucei rhodesiense STIB 900 bloodstream trypomastigote assessed as parasite growth inhibition incubated for 70 hrs by resazurin dye based assay; format: functional, organism-based; conditions: STIB 900, 70 h
Plasmodium falciparum [11] = assay: Antiprotozoal activity against erythrocytic stage Plasmodium falciparum NF54 assessed as parasite growth inhibition incubated for 48 hrs by [3H]hypoxanthine incorporation assay; format: functional, organism-based
Plasmodium falciparum [12] = assay: Antiplasmodial activity against Plasmodium falciparum 3D7 assessed as parasite growth inhibition incubated for 24 hrs by FACS analysis; format: functional, organism-based
[13] = Displacement of [14C]lactate from Plasmodium falciparum FNT expressed in Saccharomyces cerevisiae incubated for 24 hrs by liquid scintillation counter method
Plasmodium falciparum [14] = assay: Inhibition of Plasmodium falciparum DHODH using DCIP as substrate at 10 uM relative to control
Plasmodium falciparum [15] = assay: Inhibition of Plasmodium falciparum DHODH using DCIP as substrate at 50 uM relative to control
Plasmodium falciparum [16] = assay: Inhibition of Plasmodium falciparum DHODH assessed as residual activity using DCIP as substrate at 10 uM relative to control
Plasmodium falciparum [17] = assay: Inhibition of Plasmodium falciparum DHODH assessed as residual activity using DCIP as substrate at 50 uM relative to control
Leishmania donovani [18] = assay: Antiprotozoal activity against Leishmania donovani MHOM-ET-67/L82 axenic amastigotes assessed as parasite growth inhibition incubated for 70 hrs by resazurin dye based inverted microscopy; conditions: MHOM-ET-67/L82, 70 h

Structure (SMILES): CC(NCc1ccccc1)c1cc2c(cc1O)OC(C)(C)C=C2 (racemic)
- Ratio IC50 (Plasmodium falciparum [1]): 26
- IC50 (Plasmodium falciparum [2]): 0.026 µM

Structure (SMILES): COCOc1cc2c(cc1CCCNCc1ccccc1)CCC(C)(C)O2
- Ki [3]: 0.0024 µM

Structure (SMILES): CC1(C)CCc2cc(C(O)CNCc3ccccc3)c(O)cc2O1 (stereo not drawn)
- IC50 (Leishmania donovani [4]): 54 µM
- selectivity ratio [5]: 7
- IC50 (Trypanosoma cruzi): 48 µM
- selectivity ratio [6]: 1
- IC50 at 70 h [7]: 46 µM
- selectivity ratio [8]: 460
- selectivity ratio [9]: 0.9
- IC50 [10]: 6.4 µM
- IC50 (Plasmodium falciparum [11]): 0.1 µM

Structure (SMILES): CC1(C)CCc2cc(CNCc3ccccc3)c(O)cc2O1
- IC50 at 70 h [7]: 22 µM
- selectivity ratio [8]: 222
- IC50 (Plasmodium falciparum [11]): 0.099 µM

Structure (SMILES): CC1(C)CCc2cc(CNCCCc3ccccc3)c3c(c2O1)CCC(C)(C)O3
- IC50 (Leishmania donovani [4]): 11 µM
- selectivity ratio [5]: 3
- IC50 (Trypanosoma cruzi): 5.2 µM
- selectivity ratio [6]: 0.5
- IC50 at 70 h [7]: 2.6 µM
- selectivity ratio [8]: 7
- selectivity ratio [9]: 0.2
- IC50 [10]: 0.83 µM
- IC50 (Plasmodium falciparum [11]): 0.37 µM

Structure (SMILES): CC1(C)CCc2c(ccc(CNCCCc3ccccc3)c2O)O1
- IC50 (Leishmania donovani [4]): 52 µM
- selectivity ratio [5]: 8
- IC50 (Trypanosoma cruzi): 31 µM
- selectivity ratio [6]: 0.9
- IC50 at 70 h [7]: 27 µM
- selectivity ratio [8]: 180
- selectivity ratio [9]: 0.5
- IC50 [10]: 3.4 µM
- IC50 (Plasmodium falciparum [11]): 0.15 µM

Structure (SMILES): COc1ccc(C(=O)/C=C(\O)C(F)(F)C(F)(F)F)c(O)c1
- IC50 (Plasmodium falciparum [12]): 0.14 µM
- IC50 [13]: 0.17 µM

Structure (SMILES): CC1(C)CCc2c(ccc(CNCc3ccccc3)c2O)O1
- IC50 (Leishmania donovani [4]): 52 µM
- selectivity ratio [5]: 3
- IC50 (Trypanosoma cruzi): 57 µM
- selectivity ratio [6]: 1
- IC50 at 70 h [7]: 60 µM
- selectivity ratio [8]: 1130
- selectivity ratio [9]: 1
- IC50 [10]: 22 µM
- IC50 (Plasmodium falciparum [11]): 0.053 µM

Structure (SMILES): C[C@H](NCc1ccccc1)c1cc2c(cc1O)OC(C)(C)C=C2
- inhibition (Plasmodium falciparum [14]): 5%
- inhibition (Plasmodium falciparum [15]): 1%
- IC50 (Plasmodium falciparum [2]): 0.01 µM
- Activity (Plasmodium falciparum [16]): 116%
- Activity (Plasmodium falciparum [17]): 96%

Structure (SMILES): CC1(C)CCc2cc(CNCCCCc3ccccc3)c(O)cc2O1
- IC50 (Leishmania donovani [4]): 138 µM
- selectivity ratio [5]: 33
- IC50 (Trypanosoma cruzi): 13 µM
- selectivity ratio [6]: 1
- IC50 at 70 h [7]: 15 µM
- selectivity ratio [8]: 214
- selectivity ratio [9]: 0.1
- IC50 [10]: 0.46 µM
- IC50 (Plasmodium falciparum [11]): 0.07 µM

Structure (SMILES): CC1(C)CCc2cc(CCCNCc3ccccc3)c(O)cc2O1
- IC50 (Leishmania donovani [4]): 15 µM
- selectivity ratio [5]: 5
- Ki [3]: 0.0048 µM
- IC50 (Trypanosoma cruzi): 15 µM
- selectivity ratio [6]: 2
- IC50 at 70 h [7]: 24 µM
- selectivity ratio [8]: 24
- selectivity ratio [9]: 2
- IC50 [10]: 4.6 µM
- IC50 (Plasmodium falciparum [11]): 0.98 µM

Structure (SMILES): C[C@@H](NCc1ccccc1)c1cc2c(cc1O)OC(C)(C)C=C2
- inhibition (Plasmodium falciparum [14]): 3%
- inhibition (Plasmodium falciparum [15]): 1%
- IC50 (Plasmodium falciparum [2]): 0.02 µM
- Activity (Plasmodium falciparum [16]): 110%
- Activity (Plasmodium falciparum [17]): 91%

Structure (SMILES): CC1(C)CCc2cc(C(O)CNCCCc3ccccc3)c(O)cc2O1 (stereo not drawn)
- IC50 (Leishmania donovani [4]): 36 µM
- selectivity ratio [5]: 5
- IC50 (Trypanosoma cruzi): 28 µM
- selectivity ratio [6]: 0.9
- IC50 at 70 h [7]: 25 µM
- selectivity ratio [8]: 1470
- selectivity ratio [9]: 0.7
- IC50 [10]: 5.3 µM
- IC50 (Plasmodium falciparum [11]): 0.017 µM

Structure (SMILES): CC1(C)CCc2cc(CNCCc3ccccc3)c(O)cc2O1
- IC50 at 70 h [7]: 43 µM
- selectivity ratio [8]: 531
- IC50 (Plasmodium falciparum [11]): 0.081 µM

Structure (SMILES): CC1(C)CCc2c(ccc(CNCCc3ccccc3)c2O)O1
- IC50 (Leishmania donovani [4]): 141 µM
- selectivity ratio [5]: 6
- IC50 (Trypanosoma cruzi): 53 µM
- selectivity ratio [6]: 0.7
- IC50 at 70 h [7]: 36 µM
- selectivity ratio [8]: 3600
- selectivity ratio [9]: 0.3
- IC50 [10]: 6.5 µM
- IC50 (Plasmodium falciparum [11]): 0.01 µM

Structure (SMILES): CC1(C)CCc2cc(CNCc3ccccc3)c3c(c2O1)CCC(C)(C)O3
- IC50 (Leishmania donovani [4]): 13 µM
- selectivity ratio [5]: 4
- IC50 (Trypanosoma cruzi): 9.5 µM
- selectivity ratio [6]: 0.6
- IC50 at 70 h [7]: 5.6 µM
- selectivity ratio [8]: 12
- selectivity ratio [9]: 0.4
- IC50 [10]: 1.4 µM
- IC50 (Plasmodium falciparum [11]): 0.47 µM

Structure (SMILES): CCCCCCCCCCCCCCCCOP(=O)([O-])OCC[N+](C)(C)C [MILTEFOSINE]
- IC50 (Leishmania donovani [18]): 0.471 µM

Structure (SMILES): CC1(C)CCc2cc(CNCCCCc3ccccc3)c3c(c2O1)CCC(C)(C)O3
- IC50 (Leishmania donovani [4]): 4.9 µM
- selectivity ratio [5]: 6
- IC50 (Trypanosoma cruzi): 5.4 µM
- selectivity ratio [6]: 0.6
- IC50 at 70 h [7]: 3.2 µM
- selectivity ratio [8]: 15
- selectivity ratio [9]: 0.7
- IC50 [10]: 0.54 µM
- IC50 (Plasmodium falciparum [11]): 0.21 µM

Structure (SMILES): CC(NCCCc1ccccc1)c1cc2c(cc1O)OC(C)(C)C=C2 (racemic)
- inhibition (Plasmodium falciparum [14]): 3%
- Ratio IC50 (Plasmodium falciparum [1]): 13
- inhibition (Plasmodium falciparum [15]): 4%
- IC50 (Plasmodium falciparum [2]): 0.886 µM
- Activity (Plasmodium falciparum [16]): 116%
- Activity (Plasmodium falciparum [17]): 98%

Structure (SMILES): CC1(C)C=Cc2cc(CNCCCc3ccccc3)c(O)cc2O1
- IC50 (Leishmania donovani [4]): 43 µM
- selectivity ratio [5]: 28
- IC50 (Trypanosoma cruzi): 28 µM
- selectivity ratio [6]: 1
- IC50 at 70 h [7]: 28 µM
- selectivity ratio [8]: 346
- selectivity ratio [9]: 0.7
- IC50 [10]: 1.01 µM
- IC50 (Plasmodium falciparum [11]): 0.081 µM

Structure (SMILES): CC1(C)C=Cc2cc(CNCc3ccccc3)c(O)cc2O1
- IC50 (Leishmania donovani [4]): 65 µM
- selectivity ratio [5]: 63
- IC50 (Trypanosoma cruzi): 534 µM
- selectivity ratio [6]: 0.1
- IC50 at 70 h [7]: 57 µM
- selectivity ratio [8]: 356
- selectivity ratio [9]: 0.9
- IC50 [10]: 0.91 µM
- IC50 (Plasmodium falciparum [11]): 0.16 µM

Structure (SMILES): CC1(C)CCc2c(ccc(CNCCCCc3ccccc3)c2O)O1
- IC50 (Leishmania donovani [4]): 42 µM
- selectivity ratio [5]: 4
- IC50 (Trypanosoma cruzi): 18 µM
- selectivity ratio [6]: 0.8
- IC50 at 70 h [7]: 15 µM
- selectivity ratio [8]: 83
- selectivity ratio [9]: 0.4
- IC50 [10]: 3.4 µM
- IC50 (Plasmodium falciparum [11]): 0.18 µM

Structure (SMILES): CC1(C)C=Cc2cc(CNCCCCc3ccccc3)c(O)cc2O1
- IC50 (Leishmania donovani [4]): 25 µM
- selectivity ratio [5]: 17
- IC50 (Trypanosoma cruzi): 17 µM
- selectivity ratio [6]: 1
- IC50 at 70 h [7]: 19 µM
- selectivity ratio [8]: 241
- selectivity ratio [9]: 0.8
- IC50 [10]: 1.09 µM
- IC50 (Plasmodium falciparum [11]): 0.079 µM

Structure (SMILES): CC1(C)C=Cc2cc(CNCCc3ccccc3)c(O)cc2O1
- IC50 (Leishmania donovani [4]): 105 µM
- selectivity ratio [5]: 69
- IC50 (Trypanosoma cruzi): 28 µM
- selectivity ratio [6]: 2
- IC50 at 70 h [7]: 46 µM
- selectivity ratio [8]: 605
- selectivity ratio [9]: 0.4
- IC50 [10]: 0.67 µM
- IC50 (Plasmodium falciparum [11]): 0.076 µM

Structure (SMILES): CC1(C)CCc2cc(CNCCc3ccccc3)c3c(c2O1)CCC(C)(C)O3
- IC50 (Leishmania donovani [4]): 12 µM
- selectivity ratio [5]: 5
- IC50 (Trypanosoma cruzi): 9.1 µM
- selectivity ratio [6]: 0.4
- IC50 at 70 h [7]: 3.5 µM
- selectivity ratio [8]: 15
- selectivity ratio [9]: 0.3
- IC50 [10]: 0.7 µM
- IC50 (Plasmodium falciparum [11]): 0.24 µM
